Measurements reported in BindingDB's records for patent US9669095 (Enanta Pharmaceuticals, 2017).

target: Genome polyprotein (Hepatitis C virus genotype 1a (isolate H77), UniProt P27958); assay: HCV Replicon Assay Luciferase; details: 37 °C
Description: Briefly, replicon cells are seeded at 7,000 cells per well in 90 ul DMEM (without phenol red, Invitrogen Cat. #31053-036) per well with 10% FCS, 1% non-essential amino acids, 1% of Glutamax and 1% of 100 penicillin/streptomycin and incubated overnight at 37° C., 5% CO2, 100% relative humidity. 16-20 h after seeding cells, test compounds previously solubilized and titrated in dimethyl sulfoxide ( DMSO") from each X plate and Y plate are diluted 1:100 in DMEM (without phenol red, Invitrogen Cat. #31053-036) with 10% FCS, 1% non-essential amino acids, 1% of Glutamax and 1% of 100 penicillin/streptomycin and added directly to the 96-well plate containing cells and growth medium at a 1:10 dilution for a final dilution of compound and DMSO of 1:1000 ([…]). Drug treated cells are incubated at 37° C., 5% CO2, 100% relative humidity for 72 hours before performing a luciferase assay using 100 ul per well BriteLite Plus (Perkin Elmer) according to the manufacturer's instructions. Data analysis utilizes the method published by Prichard and Shipman (Antiviral Research, 1990. 14:181-205). Using this method, the combination data are analyzed for antagonistic, additive, or synergistic combination effects across the entire combination surface created by the diluted compounds in combination.

Genome polyprotein, sequence (P27958 whole entry): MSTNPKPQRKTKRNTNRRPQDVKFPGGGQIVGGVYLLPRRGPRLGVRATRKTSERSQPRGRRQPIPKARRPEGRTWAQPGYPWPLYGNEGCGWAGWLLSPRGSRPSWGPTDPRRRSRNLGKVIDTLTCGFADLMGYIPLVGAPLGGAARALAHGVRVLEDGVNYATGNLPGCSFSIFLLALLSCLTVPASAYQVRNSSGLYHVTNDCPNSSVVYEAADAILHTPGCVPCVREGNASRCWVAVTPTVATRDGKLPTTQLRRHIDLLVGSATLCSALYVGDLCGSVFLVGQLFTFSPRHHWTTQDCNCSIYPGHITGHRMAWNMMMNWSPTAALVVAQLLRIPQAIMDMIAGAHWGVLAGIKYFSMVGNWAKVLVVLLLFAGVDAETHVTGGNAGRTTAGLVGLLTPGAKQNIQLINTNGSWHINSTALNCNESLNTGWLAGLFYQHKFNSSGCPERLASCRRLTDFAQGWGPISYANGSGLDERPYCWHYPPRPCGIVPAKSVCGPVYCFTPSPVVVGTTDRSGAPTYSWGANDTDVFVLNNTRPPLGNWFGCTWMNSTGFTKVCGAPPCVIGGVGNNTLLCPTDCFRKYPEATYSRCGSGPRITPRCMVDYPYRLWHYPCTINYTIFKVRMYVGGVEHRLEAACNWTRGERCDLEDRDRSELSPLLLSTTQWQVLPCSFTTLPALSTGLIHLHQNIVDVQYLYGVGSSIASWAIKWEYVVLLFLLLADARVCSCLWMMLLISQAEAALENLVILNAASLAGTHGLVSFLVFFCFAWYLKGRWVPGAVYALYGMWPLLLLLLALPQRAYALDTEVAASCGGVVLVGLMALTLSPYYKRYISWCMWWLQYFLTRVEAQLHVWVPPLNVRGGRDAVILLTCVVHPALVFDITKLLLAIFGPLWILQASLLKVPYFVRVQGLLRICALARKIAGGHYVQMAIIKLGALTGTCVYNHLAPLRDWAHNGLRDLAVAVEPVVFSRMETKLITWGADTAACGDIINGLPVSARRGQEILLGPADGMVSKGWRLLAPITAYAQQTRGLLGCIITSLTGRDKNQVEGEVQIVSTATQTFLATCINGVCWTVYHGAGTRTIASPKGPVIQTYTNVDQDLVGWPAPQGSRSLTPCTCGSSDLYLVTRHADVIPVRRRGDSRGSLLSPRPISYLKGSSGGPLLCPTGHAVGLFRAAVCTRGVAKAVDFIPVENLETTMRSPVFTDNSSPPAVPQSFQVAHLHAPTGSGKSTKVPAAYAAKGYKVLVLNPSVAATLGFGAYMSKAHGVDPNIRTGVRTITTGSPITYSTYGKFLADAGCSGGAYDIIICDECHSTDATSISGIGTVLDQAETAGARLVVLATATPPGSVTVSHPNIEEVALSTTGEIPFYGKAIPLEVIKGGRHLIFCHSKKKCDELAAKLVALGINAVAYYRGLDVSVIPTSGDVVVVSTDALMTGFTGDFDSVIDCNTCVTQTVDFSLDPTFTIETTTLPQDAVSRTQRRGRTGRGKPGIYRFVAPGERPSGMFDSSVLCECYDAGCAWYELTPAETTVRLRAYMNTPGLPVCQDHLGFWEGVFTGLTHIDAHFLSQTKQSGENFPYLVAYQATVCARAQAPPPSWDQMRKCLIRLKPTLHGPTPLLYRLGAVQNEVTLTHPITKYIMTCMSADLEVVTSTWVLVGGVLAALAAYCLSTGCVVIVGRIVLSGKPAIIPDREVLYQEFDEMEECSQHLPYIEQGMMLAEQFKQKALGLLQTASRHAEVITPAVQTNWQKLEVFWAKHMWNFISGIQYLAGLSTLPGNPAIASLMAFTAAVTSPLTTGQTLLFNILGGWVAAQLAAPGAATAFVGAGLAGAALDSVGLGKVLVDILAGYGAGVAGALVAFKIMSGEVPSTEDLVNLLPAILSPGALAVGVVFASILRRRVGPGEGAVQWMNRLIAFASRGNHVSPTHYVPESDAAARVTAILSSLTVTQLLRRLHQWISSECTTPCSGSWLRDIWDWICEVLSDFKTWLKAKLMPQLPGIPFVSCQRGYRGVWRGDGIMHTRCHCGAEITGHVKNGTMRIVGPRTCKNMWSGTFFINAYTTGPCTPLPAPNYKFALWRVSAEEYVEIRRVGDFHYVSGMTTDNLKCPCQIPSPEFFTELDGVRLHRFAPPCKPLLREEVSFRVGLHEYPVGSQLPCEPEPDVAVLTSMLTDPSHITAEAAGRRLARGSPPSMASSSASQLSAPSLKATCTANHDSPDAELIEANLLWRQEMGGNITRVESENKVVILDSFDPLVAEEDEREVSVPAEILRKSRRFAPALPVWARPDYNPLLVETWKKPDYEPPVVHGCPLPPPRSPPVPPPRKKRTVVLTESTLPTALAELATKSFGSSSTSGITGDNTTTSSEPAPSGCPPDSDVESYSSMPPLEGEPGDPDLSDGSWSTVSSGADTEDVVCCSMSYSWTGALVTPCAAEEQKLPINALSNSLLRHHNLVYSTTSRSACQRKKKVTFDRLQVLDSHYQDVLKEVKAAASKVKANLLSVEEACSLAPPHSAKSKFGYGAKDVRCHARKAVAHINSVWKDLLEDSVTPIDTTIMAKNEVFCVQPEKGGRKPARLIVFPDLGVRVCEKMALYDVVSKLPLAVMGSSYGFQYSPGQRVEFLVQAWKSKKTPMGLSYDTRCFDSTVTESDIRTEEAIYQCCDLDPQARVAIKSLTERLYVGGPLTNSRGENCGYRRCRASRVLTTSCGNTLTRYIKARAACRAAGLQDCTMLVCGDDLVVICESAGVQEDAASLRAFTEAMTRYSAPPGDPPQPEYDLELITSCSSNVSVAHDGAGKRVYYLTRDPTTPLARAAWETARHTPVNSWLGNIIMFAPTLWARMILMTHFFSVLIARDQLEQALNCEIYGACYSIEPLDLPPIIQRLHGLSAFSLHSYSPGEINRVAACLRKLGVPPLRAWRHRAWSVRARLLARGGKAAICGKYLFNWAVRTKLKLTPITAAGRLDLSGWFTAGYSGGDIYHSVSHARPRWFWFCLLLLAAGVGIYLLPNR

SMILES	EC50
CCCC[C@@H](C)C(=O)[C@@H]1NC(=O)[C@H](C(C)C)N(C)C(=O)[C@H](CC(C)C)N(C)C(=O)[C@H](CC(C)C)N(C)C(=O)[C@@H](C)NC(=O)[C@H](C)NC(=O)[C@H](CC(C)C)N(C)C(=O)[C@H](C(C)C)NC(=O)[C@H](C(C)(C)COC(=O)NC)N(C)C(=O)[C@@H](C)N(C)C(=O)[C@H](CC)NC1=O [US9669095, 3]	in the range around 55 nM
CC[C@@H]1NC(=O)[C@H](C(=O)[C@H](C)CCCCCN2CCOCC2)NC(=O)[C@@H](C(C)C)N(C)C(=O)[C@H](CC(C)C)N(C)C(=O)[C@H](CC(C)C)N(C)C(=O)[C@@H](C)NC(=O)[C@H](C)NC(=O)[C@@H](CC(C)C)N(C)C(=O)[C@H](C(C)C)NC(=O)[C@H](C(C)(C)CN(C)C(=O)OC)N(C)C(=O)[C@@H](C)N(C)C1=O [US9669095, 6]	in the range around 55 nM
CC[C@@H]1NC(=O)[C@H](C(=O)[C@H](C)CCCCCSc2nnnn2C)NC(=O)[C@@H](C(C)C)N(C)C(=O)[C@H](CC(C)C)N(C)C(=O)[C@H](CC(C)C)N(C)C(=O)[C@@H](C)NC(=O)[C@H](C)NC(=O)[C@@H](CC(C)C)N(C)C(=O)[C@H](C(C)C)NC(=O)[C@H](C(C)(C)CN(C)C(=O)[C@@H](NC(=O)OC)C(C)C)N(C)C(=O)[C@@H](C)N(C)C1=O [US9669095, 9]	in the range around 55 nM
C/C=C/C[C@@H](C)C(=O)[C@@H]1NC(=O)[C@H](C(C)C)N(C)C(=O)[C@H](CC(C)C)N(C)C(=O)[C@H](CC(C)C)N(C)C(=O)[C@@H](C)NC(=O)[C@H](C)NC(=O)[C@H](CC(C)C)N(C)C(=O)[C@H](C(C)C)NC(=O)[C@H](C(C)(C)COC(=O)NC)N(C)C(=O)[C@@H](C)N(C)C(=O)[C@H](CC)NC1=O [US9669095, 5]	in the range around 55 nM
C/C=C/C[C@@H](C)C1ON2C(=O)[C@H](C(C)C)N(C)C(=O)[C@H](CC(C)C)N(C)C(=O)[C@@H](CC(C)C)N(C)C(=O)[C@@H](C)NC(=O)[C@H](C)NC(=O)[C@H](CC(C)C)N(C)C(=O)[C@H](C(C)C)NC(=O)[C@H](C(C)(C)CN(C)C(=O)NS(=O)(=O)c3ccccc3)N(C)C(=O)[C@@H](C)N(C)C(=O)[C@H](CC)NC(=O)[C@H]12 (stereo partly drawn) [US9669095, 14]	in the range around 550 nM
CCCC[C@@H](C)C(=O)[C@@H]1NC(=O)[C@H](C(C)C)N(C)C(=O)[C@H](CC(C)C)N(C)C(=O)[C@H](CC(C)C)N(C)C(=O)[C@@H](C)NC(=O)[C@H](C)NC(=O)[C@H](CC(C)C)N(C)C(=O)[C@H](C(C)C)NC(=O)[C@H](C(C)(C)CO)N(C)C(=O)[C@@H](C)N(C)C(=O)[C@H](CC)NC1=O [US9669095, 2]	in the range around 55 nM
C/C=C/C[C@@H](C)C1ON2C(=O)[C@H](C(C)C)N(C)C(=O)[C@H](CC(C)C)N(C)C(=O)[C@@H](CC(C)C)N(C)C(=O)[C@@H](C)NC(=O)[C@H](C)NC(=O)[C@H](CC(C)C)N(C)C(=O)[C@H](C(C)C)NC(=O)[C@H](C(C)(C)COC(=O)NS(C)(=O)=O)N(C)C(=O)[C@@H](C)N(C)C(=O)[C@H](CC)NC(=O)[C@H]12 (stereo partly drawn) [US9669095, 11]	> 1000 nM
C/C=C/C[C@@H](C)C1ON2C(=O)[C@H](C(C)C)N(C)C(=O)[C@H](CC(C)C)N(C)C(=O)[C@@H](CC(C)C)N(C)C(=O)[C@@H](C)NC(=O)[C@H](C)NC(=O)[C@H](CC(C)C)N(C)C(=O)[C@H](C(C)C)NC(=O)[C@H](C(C)(C)CN(C)C(=O)NS(C)(=O)=O)N(C)C(=O)[C@@H](C)N(C)C(=O)[C@H](CC)NC(=O)[C@H]12 (stereo partly drawn) [US9669095, 13]	in the range around 550 nM
C/C=C/C[C@@H](C)C1ON2C(=O)[C@H](C(C)C)N(C)C(=O)[C@H](CC(C)C)N(C)C(=O)[C@@H](CC(C)C)N(C)C(=O)[C@@H](C)NC(=O)[C@H](C)NC(=O)[C@H](CC(C)C)N(C)C(=O)[C@H](C(C)C)NC(=O)[C@H](C(C)(C)COC(=O)NS(=O)(=O)c3ccccc3)N(C)C(=O)[C@@H](C)N(C)C(=O)[C@H](CC)NC(=O)[C@H]12 (stereo partly drawn) [US9669095, 12]	in the range around 550 nM
C/C=C/C[C@@H](C)C(=O)[C@@H]1NC(=O)[C@H](C(C)C)N(C)C(=O)[C@H](CC(C)C)N(C)C(=O)[C@H](CC(C)C)N(C)C(=O)[C@@H](C)NC(=O)[C@H](C)NC(=O)[C@H](CC(C)C)N(C)C(=O)[C@H](C(C)C)NC(=O)[C@H](C(C)(C)CNC)N(C)C(=O)[C@@H](C)N(C)C(=O)[C@H](CC)NC1=O [US9669095, 1]	in the range around 55 nM
CC[C@@H]1NC(=O)[C@H](C(=O)[C@H](C)CCCCCSc2nnnn2C)NC(=O)[C@H](C(C)C)N(C)C(=O)[C@H](CC(C)C)N(C)C(=O)[C@H](CC(C)C)N(C)C(=O)[C@@H](C)NC(=O)[C@H](C)NC(=O)[C@H](CC(C)C)N(C)C(=O)[C@H](C(C)C)NC(=O)[C@H](C(C)(C)CN(C)C(=O)OC)N(C)C(=O)[C@@H](C)N(C)C1=O [US9669095, 7]	in the range around 55 nM
CCCC[C@@H](C)C(=O)[C@@H]1NC(=O)[C@H](C(C)C)N(C)C(=O)[C@H](CC(C)C)N(C)C(=O)[C@H](CC(C)C)N(C)C(=O)[C@@H](C)NC(=O)[C@H](C)NC(=O)[C@H](CC(C)C)N(C)C(=O)[C@H](C(C)C)NC(=O)[C@H](C(C)(C)COC(=O)N(C)C)N(C)C(=O)[C@@H](C)N(C)C(=O)[C@H](CC)NC1=O [US9669095, 4]	in the range around 55 nM
CC[C@@H]1NC(=O)[C@H](C(=O)[C@H](C)CCCCCN2CCOCC2)NC(=O)[C@H](C(C)C)N(C)C(=O)[C@H](CC(C)C)N(C)C(=O)[C@H](CC(C)C)N(C)C(=O)[C@@H](C)NC(=O)[C@H](C)NC(=O)[C@H](CC(C)C)N(C)C(=O)[C@H](C(C)C)NC(=O)[C@H](C(C)(C)CN(C)C(=O)[C@@H](NC(=O)OC)C(C)C)N(C)C(=O)[C@@H](C)N(C)C1=O [US9669095, 8]	in the range around 55 nM
